Experimental data as given in patent publication EP4810052A2, “HCRHR2 SELECTIVE POLYPEPTIDES” (Gubra A/S, priority 2023, dated 2026).
Read-outs that look alike come from different tables or passages of the source. Starred links: 1 amine or outer side, 2 acyl side, 3 side chain; linkers in the order of their positions; H or OH if unused. Non-standard residues stand in square brackets, D forms with d. Residues, ends and D or L forms follow the SMILES beside them. Groups on a side chain read outwards from the residue. *: point of attachment. C20 diacid = O=C(O)CCCCCCCCCCCCCCCCCCC(=O)*; γGlu = O=C(O)[C@H](CCC(=O)[*:2])N[*:1]; NMeI = CC[C@H](C)[C@H](NC)C(=O)O; AEEA = NCCOCCOCC(=O)O; Aib = CC(C)(N)C(=O)O

Assays:
hCRHR2 = biological target: T1, hCRHR2 (Homo sapiens, UniProt Q13324); assay: HTRF cAMP assay, determination of hCRHR2 potency (peptide libraries 5 conc., purified peptides 11 conc.); type: cell-based
T1 sequence (Q13324 1-411): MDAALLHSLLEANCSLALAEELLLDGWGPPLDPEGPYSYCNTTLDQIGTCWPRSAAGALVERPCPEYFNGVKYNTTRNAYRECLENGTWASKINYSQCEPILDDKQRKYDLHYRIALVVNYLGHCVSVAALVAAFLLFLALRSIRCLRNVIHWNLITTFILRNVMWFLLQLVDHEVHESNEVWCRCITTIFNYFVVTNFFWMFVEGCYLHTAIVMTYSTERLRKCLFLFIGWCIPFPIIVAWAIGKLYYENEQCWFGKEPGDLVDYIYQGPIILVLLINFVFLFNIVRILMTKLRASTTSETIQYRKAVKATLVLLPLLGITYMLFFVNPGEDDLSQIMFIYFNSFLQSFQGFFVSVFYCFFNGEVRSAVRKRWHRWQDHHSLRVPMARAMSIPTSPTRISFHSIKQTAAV
Outline: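 Read-out was HTRF competitive cAMP detection (d2-labelled cAMP, cryptate-labelled antibody) in suspended, freshly thawed CHO-K1 cells stably carrying human CRHR2.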

hCRHR1 = biological target: T2, hCRHR1 (Homo sapiens, UniProt P34998); assay: HTRF cAMP assay, determination of hCRHR1 potency (peptide libraries 5 conc., purified peptides 11 conc.); type: cell-based
T2 sequence (P34998 24-415): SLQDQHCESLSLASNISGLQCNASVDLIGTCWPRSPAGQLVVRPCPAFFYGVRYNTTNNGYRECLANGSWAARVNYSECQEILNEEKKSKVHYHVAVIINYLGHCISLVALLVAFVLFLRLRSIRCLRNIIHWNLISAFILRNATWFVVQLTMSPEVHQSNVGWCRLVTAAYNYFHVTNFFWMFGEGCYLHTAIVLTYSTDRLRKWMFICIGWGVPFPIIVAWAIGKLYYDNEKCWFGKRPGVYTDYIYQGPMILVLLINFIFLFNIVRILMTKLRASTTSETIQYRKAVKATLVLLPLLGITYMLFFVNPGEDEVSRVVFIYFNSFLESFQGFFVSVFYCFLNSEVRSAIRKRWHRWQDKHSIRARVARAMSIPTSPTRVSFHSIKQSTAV
Outline: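 Cellular cAMP was read by time-resolved FRET between d2-labelled cAMP and cryptate anti-cAMP antibody. The cells were freshly thawed suspension CHO-K1 cells stably expressing human CRHR1.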

[1] = Thioflavin T fibril formation assay of purified peptides; type: physicochemical; design: key: Amyloid fibril formation detected by an increase in ThT fluorescence was denoted with "Yes"; samples without increasing ThT fluorescence hence not forming amyloid fibrils were denoted "No"
Outline: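 Fibril formation read as rising ThT emission at 480 nm (450 nm excitation), 4 µM ThT, over 96 h at 40°C with alternating 5-min rest and 700 rpm shaking cycles, in triplicate. Samples were 200 µM compound in 50 mM phosphate at various pH values, or co-formulated at 200 µM in semaglutide product at pH 7.4.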

PK in rats = type: in vivo; design: T½ / MRT: unit not given here; conditions: for MRT / T½ / clearance / half-life / Cmax / Tmax: Rat; for clearance / half-life / Cmax / Tmax / bioavailability: male, in vivo; for clearance / half-life / Cmax / Tmax: Sprague Dawley (RJHan:SD); for half-life: read-out: T½ (converted); for bioavailability: Sprague Dawley, rat
Outline: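 Lean male Sprague Dawley rats (n = 3 per group) got a two-peptide combination at 50 nmol/kg IV and SC. Plasma was sampled from 0.17 to 96 h post dose and analysed by LC-MSMS. PK parameters came from non-compartmental analysis.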

[2] = purified peptides, CHO-K1 cells stably expressing hCRHR2, cAMP HTRF, read-out: hCRHR2 EC50
[3] = purified peptides, CHO-K1 cells stably expressing hCRHR1, cAMP HTRF, read-out: hCRHR1 EC50
[4] = stable cell system, Table 10, read-out: Stable EC50 (nM) hCRHR 1

## CC[C@H](C)[C@H](NC)C(=O)N[C@H](C(=O)N[C@@H](CC(C)C)C(=O)N[C@@H](CO)C(=O)N[C@@H](CC(C)C)C(=O)N[C@@H](CC(=O)O)C(=O)N[C@H](C(=O)N1CCC[C@H]1C(=O)N[C@H](C(=O)NCC(=O)N[C@@H](CC(C)C)C(=O)N[C@@H](CC(C)C)C(=O)N[C@@H](CCC(N)=O)C(=O)N[C@H](C(=O)N[C@@H](CC(C)C)C(=O)N[C@@H](CC(C)C)C(=O)N[C@@H](CCC(=O)O)C(=O)N[C@@H](CCC(N)=O)C(=O)N[C@@H](C)C(=O)N[C@@H](CCCNC(=N)N)C(=O)N[C@@H](C)C(=O)N[C@@H](CCCNC(=N)N)C(=O)N[C@@H](C)C(=O)N[C@@H](C)C(=O)N[C@@H](CCCNC(=N)N)C(=O)N[C@@H](CCC(=O)O)C(=O)N[C@@H](CCC(N)=O)C(=O)N[C@@H](C)C(=O)N[C@H](C(=O)N[C@@H](CCCCNC(=O)COCCOCCNC(=O)COCCOCCNC(=O)CC[C@H](NC(=O)CC[C@H](NC(=O)CCCCCCCCCCCCCCCCCCC(=O)O)C(=O)O)C(=O)O)C(=O)N[C@@H](CC(N)=O)C(=O)N[C@@H](C)C(=O)N[C@@H](CCC(=O)O)C(=O)N[C@H](C(=O)N[C@@H](CC(C)C)C(=O)N[C@@H](C)C(=O)N[C@@H](CCC(=O)O)C(=O)N[C@H](C(N)=O)C(C)C)[C@@H](C)CC)[C@@H](C)O)[C@@H](C)CC)[C@@H](C)CC)C(C)C)C(C)C [SEQ ID NO: 6] (H-[NMeI]VLSLDVPIGLLQILLEQARARAAREQATK([AEEA-AEEA-γGlu-γGlu-C20 diacid])NAEILAEV-NH2)
hCRHR2; hCRHR1-EC50/hCRHR2-EC50
  Selectivity ratio (hCRHR1/ hCRHR2): >1852
hCRHR2; [2]
  EC50: 2.7 nM
hCRHR2; stable cell system, Table 10, read-out: Stable EC50 (nM) hCRHR 2a
  EC50: 3 nM
hCRHR1; [3]
  EC50: > 5000 nM
hCRHR1; [4]
  EC50: > 5000 nM
[1]; 200 µM compound dissolved in semaglutide drug product, pH 7.4, listed as None = drug product alone
  Amyloid fibril formation + semaglutide (Ozempic®), pH 7.4: No
[1]; 200 µM in 50 mM phosphate buffer, pH 7.0
  Amyloid fibril formation pH 7.0: No
[1]; 200 µM in 50 mM phosphate buffer, pH 7.5
  Amyloid fibril formation pH 7.5: No
[1]; 200 µM in 50 mM phosphate buffer, pH 8.0
  Amyloid fibril formation pH 8.0: No
[1]; pH 7.5, ThT assay
  Fibrillation (pH 7.5): No
PK in rats
  MRT: 7.4
  T½: 6.1
PK in rats; iv, 50 nmol/kg i.v.
  clearance: 0.15 mL/min/kg
  half-life: 6.1 h
PK in rats; sc, 50 nmol/kg s.c.
  Cmax: 0.07 µM
  Tmax: 24 h
  half-life: 8.4 h
PK in rats; sc
  bioavailability: 35%
pH 6.5
  Solubility pH 6.5 (mg/ml): 21.1 mg/ml
pH 7
  Solubility pH 7.0 (mg/mL): 20.0 mg/mL
pH 7.5
  Solubility pH 7.5 (mg/mL): 18.7 mg/mL
  Solubility pH 7.5 + phenol (mg/mL): 18.1 mg/mL

## CC[C@H](C)[C@H](N)C(=O)N[C@H](C(=O)N[C@@H](CC(C)C)C(=O)N[C@@H](CO)C(=O)N[C@@H](CC(C)C)C(=O)N[C@@H](CC(=O)O)C(=O)N[C@H](C(=O)N1CCC[C@H]1C(=O)N[C@H](C(=O)NCC(=O)N[C@@H](CC(C)C)C(=O)N[C@@H](CC(C)C)C(=O)N[C@@H](CCC(N)=O)C(=O)N[C@H](C(=O)N[C@@H](CC(C)C)C(=O)N[C@@H](CC(C)C)C(=O)N[C@@H](CCC(=O)O)C(=O)N[C@@H](CCC(N)=O)C(=O)N[C@@H](C)C(=O)N[C@@H](CCCNC(=N)N)C(=O)N[C@@H](C)C(=O)N[C@@H](CCCNC(=N)N)C(=O)N[C@@H](C)C(=O)N[C@@H](C)C(=O)N[C@@H](CCCNC(=N)N)C(=O)N[C@@H](CCC(=O)O)C(=O)N[C@@H](CCC(N)=O)C(=O)N[C@@H](C)C(=O)N[C@@H](CCCCNC(=O)COCCOCCNC(=O)COCCOCCNC(=O)CC[C@H](NC(=O)CC[C@H](NC(=O)CCCCCCCCCCCCCCCCCCC(=O)O)C(=O)O)C(=O)O)C(=O)NC(C)(C)C(=O)N[C@@H](CC(N)=O)C(=O)N[C@@H](C)C(=O)N[C@@H](CCC(=O)O)C(=O)N[C@H](C(=O)N[C@@H](CC(C)C)C(=O)N[C@@H](C)C(=O)N[C@@H](CCC(=O)O)C(=O)N[C@H](C(N)=O)C(C)C)[C@@H](C)CC)[C@@H](C)CC)[C@@H](C)CC)C(C)C)C(C)C [SEQ ID NO: 19] (H-IVLSLDVPIGLLQILLEQARARAAREQAK([AEEA-AEEA-γGlu-γGlu-C20 diacid])[Aib]NAEILAEV-NH2)
hCRHR2; hCRHR1-EC50/hCRHR2-EC50
  Selectivity ratio (hCRHR1/ hCRHR2): >3125
hCRHR2; [2]
  EC50: 1.6 nM
hCRHR1; [3]
  EC50: > 5000 nM
[1]; pH 7.5, ThT assay
  Fibrillation (pH 7.5): No
PK in rats
  MRT: 7.4
  T½: 5.9
pH 7.5
  Solubility pH 7.5, target conc. =10 mg/mL (measured mg/mL): 9.6 mg/mL

## CC[C@H](C)[C@H](N)C(=O)N[C@H](C(=O)N[C@@H](CC(C)C)C(=O)N[C@@H](CO)C(=O)N[C@@H](CC(C)C)C(=O)N[C@@H](CC(=O)O)C(=O)N[C@H](C(=O)N1CCC[C@H]1C(=O)N[C@H](C(=O)NCC(=O)N[C@@H](CC(C)C)C(=O)N[C@@H](CC(C)C)C(=O)N[C@@H](CCC(N)=O)C(=O)N[C@H](C(=O)N[C@@H](CC(C)C)C(=O)N[C@@H](CC(C)C)C(=O)N[C@@H](CCC(=O)O)C(=O)N[C@@H](CCC(N)=O)C(=O)N[C@@H](C)C(=O)N[C@@H](CCCNC(=N)N)C(=O)N[C@@H](C)C(=O)N[C@@H](CCCNC(=N)N)C(=O)N[C@@H](C)C(=O)N[C@@H](C)C(=O)N[C@@H](CCCNC(=N)N)C(=O)N[C@@H](CCC(=O)O)C(=O)N[C@@H](CCC(N)=O)C(=O)N[C@@H](C)C(=O)N[C@@H](CCCCNC(=O)COCCOCCNC(=O)COCCOCCNC(=O)CC[C@H](NC(=O)CC[C@H](NC(=O)CCCCCCCCCCCCCCCCCCC(=O)O)C(=O)O)C(=O)O)C(=O)N[C@H](C(=O)N[C@@H](CC(N)=O)C(=O)N[C@@H](C)C(=O)N[C@@H](CCC(=O)O)C(=O)N[C@H](C(=O)N[C@@H](CC(C)C)C(=O)N[C@@H](C)C(=O)N[C@@H](CCC(=O)O)C(=O)N[C@H](C(N)=O)C(C)C)[C@@H](C)CC)[C@@H](C)O)[C@@H](C)CC)[C@@H](C)CC)C(C)C)C(C)C [SEQ ID NO: 3] (H-IVLSLDVPIGLLQILLEQARARAAREQAK([AEEA-AEEA-γGlu-γGlu-C20 diacid])TNAEILAEV-NH2)
hCRHR2; Table 3, matched molecular pairs X^38 L vs Nle, peptide library of Example 4, read-out: hCRHR2 pEC50 (converted)
  EC50: 0.501 nM
hCRHR2; Table 5
  Selectivity ratio (hCRHR1/ hCRHR2): >4546
hCRHR2; hCRHR1-EC50/hCRHR2-EC50
  Selectivity ratio (hCRHR1/ hCRHR2): >4546
hCRHR2; [2]
  EC50: 1.1 nM
hCRHR1; Table 3, matched molecular pairs X^38 L vs Nle, peptide library of Example 4, read-out: hCRHR1 pEC50 (converted)
  EC50: 25100 nM
hCRHR1; Table 5, purified peptides, read-out: hCRHR1 EC50
  EC50: > 5000 nM
hCRHR1; [3]
  EC50: > 5000 nM
hCRHR1; [4]
  EC50: > 5000 nM
[1]; pH 7.5
  Fibrillation (pH 7.5): No
[1]; pH 7.5, ThT assay
  Fibrillation (pH 7.5): No
PK in rats
  MRT: 9.2
  T½: 7.7
PK in rats; iv, 50 nmol/kg i.v.
  clearance: 0.0833 mL/min/kg
  half-life: 7.7 h
PK in rats; sc, 50 nmol/kg s.c.
  Cmax: 0.09 µM
  Tmax: 24 h
  half-life: 7.9 h
PK in rats; sc
  bioavailability: 27%
pH 7.5
  Solubility pH 7.5, target conc. =5 mg/mL (measured mg/mL): 4.5 mg/mL
  Solubility pH 7.5, target conc. =10 mg/mL (measured mg/mL): 10 mg/mL
